From US20060223875A1, “Methods and compositions for production, formulation and use of 1-aryl-3-azabicyclo[3.1.0]hexanes” (priority 2005, published 2006)
pIC50: −log10 of the molar value. Read-outs that look alike come from different tables or passages of the source.

Tests used:
[1] = target: dopamine (DA) transporter (Rattus norvegicus, UniProt P23977); assay: Inhibition of [3H]DA uptake in rat striatum synaptosomes; type: biochemical
Method: (§1) The effects of 1-aryl-3-azabicyclo[3.1.0]hexanes of the invention for inhibiting transport of norepinephrine (NE) and/or dopamine (DA) and/or serotonin (5-HT) were evaluated using preparations of synaptosomes from different regions of the rat brain according to previously-reported techniques (Perovic and Muller, 1995, Janowsky et al., 1986). The subject assay methods are art-accepted models for generally assessing and predicting activities of drugs that modulate biogenic amine transport in mammals.
(§2) Whole brains were obtained from normal rats, and synaptosomal preparations were made from either whole brain (5-HT), striatum (DA) or hypothalamus (NE) by gentle disruption in 10 volumes (w/v) of 0.32 M sucrose (0-4° C.) using a Teflon-glass homogenizer. The homogenate was then centrifuged at 1000×g for 10 min. The supernatant was retained and centrifuged at 23000 g for 20 min. The resulting pellet was gently resuspended in 200 volumes of 0.32 M sucrose (0-4° C.) using a teflon-glass homogenizer. Aliquots (250 μL) of this preparation were added to tubes, along with 0.2 μCi/mL of [^3H]5-HT, [^3H]DA, or [^3H]NE, 200 μL of selected 1-aryl-3-azabicyclo[3.1.0]hexane test compounds (to yield final concentrations of 100 nM, 300 nM, 1 μM, 3 μM, 10 μM, 30 μM or 100 μM) and 1 mL of Krebs-Ringer bicarbonate buffer (pH 7.4). The mixtures were incubated for either 15 (DA and 5-HT uptake) or 20 (NE uptake) minutes at 37° C. At the end of this period, the assay was terminated by rapid filtration over Whatman GF/C glass fiber filters. The filters were rinsed 3 times with 4 ml of Krebs-Ringer bicarbonate buffer (0-4° C.), and the radioactivity retained on the filters was measured by liquid scintillation spectrometry. The results of these assays are shown in Table 3, below, which indicates, for each of the exemplary, aza-substituted compounds, the structure of the substituent, and levels of observed uptake inhibition for each of the indicated neurotransmitters. Also provided in the table is a multi-target “inhibition profile”, expressing a ratio of observed inhibition for each of the aza-substituted bicifadine across a panel of the three indicated neurotransmitters.

[2] = target: norepinephrine (NE) transporter (Rattus norvegicus, UniProt Q9WTR4); assay: Inhibition of [3H]NE uptake in rat hypothalamus synaptosomes; type: biochemical
Sequence of norepinephrine (NE) transporter (Q9WTR4 1-597): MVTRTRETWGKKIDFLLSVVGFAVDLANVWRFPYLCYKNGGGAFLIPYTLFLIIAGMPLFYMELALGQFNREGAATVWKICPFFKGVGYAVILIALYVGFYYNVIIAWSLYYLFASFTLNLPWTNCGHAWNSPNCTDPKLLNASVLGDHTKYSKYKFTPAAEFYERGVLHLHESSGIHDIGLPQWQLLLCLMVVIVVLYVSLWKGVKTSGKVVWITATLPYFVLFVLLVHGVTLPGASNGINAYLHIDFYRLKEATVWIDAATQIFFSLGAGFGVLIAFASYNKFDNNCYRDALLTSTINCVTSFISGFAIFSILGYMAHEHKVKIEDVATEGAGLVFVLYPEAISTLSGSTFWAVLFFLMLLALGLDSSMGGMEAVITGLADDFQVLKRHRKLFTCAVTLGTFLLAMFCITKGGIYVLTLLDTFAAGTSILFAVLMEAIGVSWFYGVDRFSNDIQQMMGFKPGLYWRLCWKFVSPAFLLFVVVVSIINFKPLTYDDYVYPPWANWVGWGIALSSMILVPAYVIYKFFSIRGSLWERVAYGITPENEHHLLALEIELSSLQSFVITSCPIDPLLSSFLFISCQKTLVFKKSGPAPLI
Method: as §1, §2

[3] = target: serotonin (5-HT) transporter (Rattus norvegicus, UniProt P31652); assay: Inhibition of [3H]5-HT uptake in rat whole brain synaptosomes; type: biochemical
Sequence of serotonin (5-HT) transporter (P31652 whole entry): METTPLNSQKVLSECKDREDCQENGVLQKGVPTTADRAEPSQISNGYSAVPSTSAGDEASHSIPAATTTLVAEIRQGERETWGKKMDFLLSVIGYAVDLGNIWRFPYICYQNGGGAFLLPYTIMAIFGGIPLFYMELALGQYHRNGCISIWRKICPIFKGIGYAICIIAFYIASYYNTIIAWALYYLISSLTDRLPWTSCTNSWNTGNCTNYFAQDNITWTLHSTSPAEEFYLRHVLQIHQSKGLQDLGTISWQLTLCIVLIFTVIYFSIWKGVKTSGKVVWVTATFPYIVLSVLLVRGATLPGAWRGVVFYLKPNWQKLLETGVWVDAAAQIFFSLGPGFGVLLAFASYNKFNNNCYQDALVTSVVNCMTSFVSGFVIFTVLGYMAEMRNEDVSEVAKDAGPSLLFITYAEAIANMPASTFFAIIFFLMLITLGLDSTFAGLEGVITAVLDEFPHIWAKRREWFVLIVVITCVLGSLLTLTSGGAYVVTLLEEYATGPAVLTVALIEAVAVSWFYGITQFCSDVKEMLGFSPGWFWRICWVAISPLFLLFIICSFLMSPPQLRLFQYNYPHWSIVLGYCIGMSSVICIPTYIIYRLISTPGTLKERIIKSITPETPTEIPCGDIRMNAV
Method: as §1, §2

[4] = orally administered single dose; 150 mg bicifadine, 650 mg aspirin; cited from earlier work
[5] = dental surgery patients; cited from earlier work
[6] = test system: reuptake of norepinephrine, serotonin, and dopamine; conditions: cited from earlier work
[7] = rat striatum synaptosomes, [3H]DA, 15 min, 37° C., read-out: Inhibition of DA Uptake (IC50)
[8] = rat hypothalamus synaptosomes, [3H]NE, 20 min, 37° C., read-out: Inhibition of NE Uptake (IC50)
[9] = rat whole brain synaptosomes, [3H]5-HT, 15 min, 37° C., read-out: Inhibition of 5-HT Uptake (IC50)

Sequence of dopamine (DA) transporter (P23977 whole entry): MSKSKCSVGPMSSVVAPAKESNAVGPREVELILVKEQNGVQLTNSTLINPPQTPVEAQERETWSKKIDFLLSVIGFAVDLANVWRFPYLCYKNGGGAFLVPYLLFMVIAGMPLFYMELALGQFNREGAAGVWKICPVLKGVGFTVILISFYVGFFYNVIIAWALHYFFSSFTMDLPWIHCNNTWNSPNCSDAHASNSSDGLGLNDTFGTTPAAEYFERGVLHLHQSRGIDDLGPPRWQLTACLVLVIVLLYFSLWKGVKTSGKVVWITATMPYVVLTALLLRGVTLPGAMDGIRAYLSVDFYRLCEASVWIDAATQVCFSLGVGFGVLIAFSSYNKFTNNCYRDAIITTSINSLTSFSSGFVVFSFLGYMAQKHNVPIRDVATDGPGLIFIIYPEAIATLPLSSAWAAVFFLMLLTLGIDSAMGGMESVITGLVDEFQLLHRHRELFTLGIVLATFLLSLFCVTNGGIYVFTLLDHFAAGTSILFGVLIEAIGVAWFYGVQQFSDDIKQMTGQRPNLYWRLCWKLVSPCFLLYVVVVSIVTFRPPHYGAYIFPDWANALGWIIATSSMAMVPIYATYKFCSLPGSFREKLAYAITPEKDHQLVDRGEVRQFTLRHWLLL

Compound	pIC50 [1, 7]	pIC50 [2, 8]	pIC50 [3, 9]	other results
CN1CC2CC2(c2cccc(Cl)c2)C1 (stereo not shown) [CH3,3-Cl, 1-(3-Chlorophenyl)-3-methyl-3-aza-bicyclo[3.1.0]hexane]				pIC50 [1]: 5.89; pIC50 [2]: 7.08; pIC50 [3]: 6.57
CC(=O)Oc1ccccc1C(=O)O [aspirin]				analgesic activity compared to placebo [4]: Significant analgesic activity
Cc1ccc(C23CNCC2C3)cc1.Cl (stereo not shown) [bicifadine, 1-p-Tolyl-3-aza-bicyclo[3.1.0]hexane hydrochloride, reference compound]	5.89	6.89	6.89	analgesia relative to codeine and tramadol [5]: analgesia comparable to the narcotic, codeine and the narcotic-like agent tramadol; analgesic activity compared to placebo [4]: Significant analgesic activity
Cc1ccc(C23CC2CN(C(C)C)C3)cc1 (stereo not shown) [i-C3H7,4-CH3, 3-Isopropyl-1-p-tolyl-3-aza-bicyclo[3.1.0]hexane]	6.21	6.64	6.77	
Cl.Clc1ccc(C23CNCC2C3)cc1Cl (stereo not shown) [1-(3,4-dichlorophenyl)-3-azabicyclo[3.1.0]hexane hydrochloride]				inhibition of reuptake of norepinephrine, serotonin, and dopamine [6]: inhibit reuptake of all three of these biogenic amines
CN1CC2CC2(c2ccc(CN)cc2)C1 (stereo not shown) [CH3,4-CH2NH2, (4-(3-Methyl-3-aza-bicyclo[3.1.0]hexan-1-yl)phenyl)methanamine]	5.07		5.13	
Cc1ccc(C23CC2CN(C(C)(C)C)C3)cc1 (stereo not shown) [t-C4H9,4-CH3]	5.14	5.57	5.12	
Cc1ccc(C23CC2CN(C)C3)cc1 (stereo not shown) [CH3,4-CH3, 3-Methyl-1-p-tolyl-3-aza-bicyclo[3.1.0]hexane]				pIC50 [1]: 6.02; pIC50 [2]: 6.82; pIC50 [3]: 6.72
CN1CC2CC2(c2ccc(F)cc2)C1 (stereo not shown) [CH3,4-F, 1-(4-Fluorophenyl)-3-methyl-3-aza-bicyclo[3.1.0]hexane]				pIC50 [1]: 5.42; pIC50 [2]: 6.77; pIC50 [3]: 5.47
CCCN1CC2CC2(c2ccc(C)cc2)C1 (stereo not shown) [n-C3H7,4-CH3, 3-Propyl-1-p-tolyl-3-aza-bicyclo[3.1.0]hexane]	5.57	5.85	6.12	
COCCN1CC2CC2(c2ccc(C)cc2)C1 (stereo not shown) [C3H7O, 4-CH3, 3-(2-Methoxyethyl)-1-p-tolyl-3-aza-bicyclo[3.1.0]hexane]	5.00	5.19	5.10	
Cc1ccc(C23CC2CN(CC(F)(F)F)C3)cc1 (stereo not shown) [C2H2F3,4-CH3]	4.32		4.60	
CCN1CC2CC2(c2ccc(C)cc2)C1 (stereo not shown) [C2H5,4-CH3, 3-Ethyl-1-p-tolyl-3-aza-bicyclo[3.1.0]hexane]				pIC50 [1]: > 7.00; pIC50 [2]: > 7.00; pIC50 [3]: 6.62
CN1CC2CC2(c2ccc(C(F)(F)F)cc2)C1 (stereo not shown) [CH3,4-CF3, 3-Methyl-1-(4-trifluoromethylphenyl)-3-aza-bicyclo[3.1.0]hexane]		5.59	6.89	
